Data as given in US10947252B2, “Inhibitors of KEAP1-Nrf2 protein-protein interaction” (Janssen Pharmaceutica NV, priority 2018, dated 2021).

Columns and labels:
[1] = biological target: Kelch domain of human KEAP1 (321-624 aa) (Homo sapiens (Human), UniProt Q14145); experiment: KEAP1 KELCH ThermoFluor binding assay; conditions: KEAP Kelch […], 1,8-ANS, pH 7.0, average of results obtained, read-out: Tf Kd;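 note: Ligand-induced melting temperature shift of E. coli-expressed KEAP1 Kelch protein, Kd estimated from concentration-response curves of ΔTm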
[2] = system: Glo-Response ARE-luc2P HEK293 cell line; experiment: ARE luciferase reporter cell-based assay; conditions: Homo sapiens, HEK293, 24 h, average of results obtained;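 note: luciferase signal tracks Nrf2 activation of the ARE once compounds disrupt KEAP1-Nrf2 binding, read with One-Glo reagent, DMSO serving as low control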

Sequence of Kelch domain of human KEAP1 (321-624 aa) (Q14145 321-624): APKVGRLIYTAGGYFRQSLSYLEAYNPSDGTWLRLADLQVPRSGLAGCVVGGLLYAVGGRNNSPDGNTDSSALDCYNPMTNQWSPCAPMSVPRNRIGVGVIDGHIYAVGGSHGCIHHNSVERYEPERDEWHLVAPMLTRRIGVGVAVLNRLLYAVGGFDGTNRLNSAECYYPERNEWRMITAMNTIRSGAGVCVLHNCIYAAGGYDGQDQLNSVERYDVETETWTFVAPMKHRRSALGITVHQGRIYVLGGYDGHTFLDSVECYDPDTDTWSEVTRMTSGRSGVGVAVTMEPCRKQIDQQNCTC

Row | Compound | Kd [1] | EC50 [2]
1 | Cc1ccc([C@H](c2ccn3c(C(F)(F)F)nnc3c2C)C(C)(C)C(=O)O)cc1CN1CC2(CCOCC2)Oc2nc(OCCN3CCC(F)(F)CC3)ccc2S1(=O)=O (single isomer, unassigned) [Example 360, (*R)-3-(3-((7′-(2-(4,4-Difluoropiperidin-1-yl)ethoxy)-1′,1′-dioxido-2,3,5,6-tetrahydrospiro[pyran-4,4′-pyrido[2,3-b][1,4,5]oxathiazepin]-2′(3′H)-yl)methyl)-4-methylphenyl)-2,2-dimethyl-3-(8-methyl-3-(trifluoromethyl)-[1,2,4]triazolo[4,3-a][pyridine-7-yl)propanoic Acid] | < 1 nM | 9.3 nM
2 | Cc1ccc([C@H](c2ccn3c(C(F)(F)F)nnc3c2C)C(C)(C)C(=O)O)cc1CN1CC2(CCOCC2)Oc2nc(NC3CC(O)C3)c(C)cc2S1(=O)=O (single isomer, unassigned) [Example 361, (*R)-3-(3-((7′-(((1R,3R)-3-Hydroxycyclobutyl)amino)-8′-methyl-1′,1′-dioxido-2,3,5,6-tetrahydrospiro[pyran-4,4′-pyrido[2,3-b][1,4,5]oxathiazepin]-2′(3′H)-yl)methyl)-4-methylphenyl)-2,2-dimethyl-3-(8-methyl-3-(trifluoromethyl)-[1,2,4]triazolo[4,3-a]pyridine-7-yl)propanoic Acid] | < 1 nM | 60.4 nM
3 | Cc1ccc([C@H](c2ccn3c(C(F)(F)F)nnc3c2C)C(C)(C)C(=O)O)cc1CN1CC2(CCOCC2)Oc2nc(N[C@H](C)CN3CCOCC3)c(C)cc2S1(=O)=O (single isomer, unassigned) [Example 362, (*R)-2,2-Dimethyl-3-(4-methyl-3-((8′-methyl-7′-(((R-1-morpholinopropan-2-yl)amino)-1′,1′-dioxido-2,3,5,6-tetrahydrospiro[pyran-4,4′-pyrido[2,3-b][1,4,5]oxathiazepin]-2′(3′H)-yl)methyl)phenyl)-3-(8-methyl-3-(trifluoromethyl)-[1,2,4]triazolo[4,3-a]pyridine-7-yl)propanoic Acid] | < 1 nM | 20.5 nM
4 | Cc1ccc([C@H](c2ccn3c(C(F)(F)F)nnc3c2C)C(C)(C)C(=O)O)cc1CN1CC2(CCOCC2)Oc2nc(N[C@@H](C)CN3CCOCC3)c(C)cc2S1(=O)=O (single isomer, unassigned) [Example 363, (*R)-2,2-Dimethyl-3-(4-methyl-3-((8′-methyl-7′-(((S-1-morpholinopropan-2-yl)amino)-1′,1′-dioxido-2,3,5,6-tetrahydrospiro[pyran-4,4′-pyrido[2,3-b][1,4,5]oxathiazepin]-2′(3′H)-yl)methyl)phenyl)-3-(8-methyl-3-(trifluoromethyl)-[1,2,4]triazolo[4,3-a]pyridine-7-yl)propanoic Acid] | < 1 nM | 12.9 nM
5 | Cc1ccc([C@H](c2ccn3c(C(F)(F)F)nnc3c2C)C(C)(C)C(=O)O)cc1CN1CC2(CCOCC2)Oc2nc(NCCN3CCOCC3)c(C)cc2S1(=O)=O (single isomer, unassigned) [Example 365, (*R)-2,2-Dimethyl-3-(4-methyl-3-((8′-methyl-7′-((2-morpholinoethyl)amino)-1′,1′-dioxido-2,3,5,6-tetrahydrospiro[pyran-4,4′-pyrido[2,3-b][1,4,5]oxathiazepin]-2′(3′H)-yl)methyl)phenyl)-3-(8-methyl-3-(trifluoromethyl)-[1,2,4]triazolo[4,3-a]pyridine-7-yl)propanoic Acid] | < 1 nM | 23.9 nM
6 | Cc1ccc([C@H](c2ccn3c(C(F)(F)F)nnc3c2C)C(C)(C)C(=O)O)cc1CN1CC2(CCOCC2)Oc2nc(NCCN3CCNCC3)c(C)cc2S1(=O)=O (single isomer, unassigned) [Example 366] | < 1 nM | 407 nM
7 | Cc1ccc([C@H](c2ccn3c(C(F)(F)F)nnc3c2C)C(C)(C)C(=O)O)cc1CN1CC2(CCOCC2)Oc2nc(OCCC3CCNCC3)c(C)cc2S1(=O)=O (single isomer, unassigned) [Example 369, (*R)-2,2-Dimethyl-3-(4-methyl-3-(8′-methyl-1′,1′-dioxido-7′-(2-(piperidin-4-yl)ethoxy)-2,3,5,6-tetrahydrospiro[pyran-4,4′-pyrido[2,3-b][1,4,5]oxathiazepin]-2′(3′H)-yl)methyl)-4-methylphenyl)-2,2-dimethyl-3-(8-methyl-3-(trifluoromethyl)-[1,2,4]triazolo[4,3-a][pyridine-7-yl)propanoic Acid] | < 1 nM | 176 nM
8 | Cc1ccc([C@@H](c2ccn3c(C(F)(F)F)nnc3c2C)C(C)(C)C(=O)O)cc1CN1CC2(CCOCC2)Oc2nc(OCCN3CCCC3)c(C)cc2S1(=O)=O (single isomer, unassigned) [Example 370, (*S)-2,2-Dimethyl-3-(4-methyl-3-((8′-methyl-1′,1′-dioxido-7′-(2-(pyrrolidin-1-yl)ethoxy)-2,3,5,6-tetrahydrospiro[pyran-4,4′-pyrido[2,3-b][1,4,5]oxathiazepin]-2′(3′H)-yl)methyl)-4-methylphenyl)-2,2-dimethyl-3-(8-methyl-3-(trifluoromethyl)-[1,2,4]triazolo[4,3-a][pyridine-7-yl)propanoic Acid] | < 1 nM | 11.3 nM
9 | Cc1ccc([C@@H](c2ccn3c(C(F)(F)F)nnc3c2C)C(C)(C)C(=O)O)cc1CN1CC2(CC2)Oc2nc(OCCN3CCCC3)c(C)cc2S1(=O)=O (single isomer, unassigned) [Example 373, (*S)-2,2-Dimethyl-3-(4-methyl-3-((8′-methyl-1′,1′-dioxido-7′-(2-(pyrrolidin-1-yl)ethoxy)spiro[cyclopropane-1,4′-pyrido[2,3-b][1,4,5]oxathiazepin]-2′(3′H)-yl)methyl)phenyl)-3-(8-methyl-3-(trifluoromethyl)-[1,2,4]triazolo[4,3-a]pyridine-7-yl)propanoic Acid] | < 1 nM | 5.4 nM
10 | Cc1ccc([C@@H](c2ccn3c(C(F)F)nnc3c2C)C(C)(C)C(=O)O)cc1CN1CC2(CC2)Oc2nc(OCCN3CCCC3)c(C)cc2S1(=O)=O (single isomer, unassigned) [Example 375, (*S)-3-(3-(Difluoromethyl)-8-methyl-[1,2,4]triazolo[4,3-a]pyridine-7-yl)-2,2-dimethyl-3-(4-methyl-3-((8′-methyl-1′,1′-dioxido-7′-(2-(pyrrolidin-1-yl)ethoxy)spiro[cyclopropane-1,4′-pyrido[2,3-b][1,4,5]oxathiazepin]-2′(3′H)-yl)methyl)phenyl)propanoic Acid] | < 1 nM | 11.5 nM

Now from value to molecule, other results behind:

Row | Kd [1] | Compound | EC50 [2]
11 | < 1 nM | Cc1ccc([C@H](c2ccn3c(C(F)(F)F)nnc3c2C)C(C)(C)C(=O)O)cc1CN1CC2(CCOCC2)Oc2nc(N[C@@H](C)CN3CCCC3)c(C)cc2S1(=O)=O (single isomer, unassigned) [Example 367, (*R)-2,2-Dimethyl-3-(4-methyl-3-((8′-methyl-1′,1′-dioxido-7′-(((S)-1-(pyrrolidine-1-yl)propan-2-yl)amino)-2,3,5,6-tetrahydrospiro[pyran-4,4′-pyrido[2,3-b][1,4,5]oxathiazepin]-2′(3′H)-yl)methyl)phenyl)-3-(8-methyl-3-(trifluoromethyl)-[1,2,4]triazolo[4,3-a]pyridine-7-yl)propanoic Acid] | 78.6 nM
12 | < 1 nM | Cc1ccc([C@H](c2ccn3c(C(F)(F)F)nnc3c2C)C(C)(C)C(=O)O)cc1CN1CC2(CCOCC2)Oc2nc(OCCN3CCNCC3)ccc2S1(=O)=O (single isomer, unassigned) [Example 368, (*R)-3-(3-((1′,1′-Dioxido-7′-(2-(piperazin-1-yl)ethoxy)-2,3,5,6-tetrahydrospiro[pyran-4,4′-pyrido[2,3-b][1,4,5]oxathiazepin]-2′(3′H)-yl)methyl)-4-methylphenyl)-2,2-dimethyl-3-(8-methyl-3-(trifluoromethyl)-[1,2,4]triazolo[4,3-a][pyridine-7-yl)propanoic Acid] | 256 nM
13 | < 1 nM | Cc1ccc([C@@H](c2ccn3c(C(F)(F)F)nnc3c2C)C(C)(C)C(=O)O)cc1CN1CC2(CC2)Oc2nc(OCCN3CCCCC3)ccc2S1(=O)=O (single isomer, unassigned) [Example 371, (*S)-3-(3-1′,1′-Dioxido-7′-(2-(piperidin-1-yl)ethoxy)spiro[cyclopropane-1,4′-pyrido[2,3-b][1,4,5]oxathiazepin]-2′(3′H)-yl)methyl)-4-methylphenyl)-2,2-dimethyl-3-(8-methyl-3-(trifluoromethyl)-[1,2,4]triazolo[4,3-a][pyridine-7-yl)propanoic Acid] | 6 nM
14 | < 1 nM | Cc1ccc([C@@H](c2ccn3c(C(F)(F)F)nnc3c2C)C(C)(C)C(=O)O)cc1CN1CC2(CC2)Oc2nc(OCCN3CCCCC3)c(C)cc2S1(=O)=O (single isomer, unassigned) [Example 372, (*S)-2,2-Dimethyl-3-(4-methyl-3-((8′-methyl-1′,1′-dioxido-7′-(2-(piperidin-1-yl)ethoxy)spiro[cyclopropane-1,4′-pyrido[2,3-b][1,4,5]oxathiazepin]-2′(3′H)-yl)methyl)phenyl)-3-(8-methyl-3-(trifluoromethyl)-[1,2,4]triazolo[4,3-a]pyridine-7-yl)propanoic Acid] | 2.9 nM
15 | < 1 nM | Cc1ccc([C@@H](c2ccn3c(C(F)F)nnc3c2C)C(C)(C)C(=O)O)cc1CN1CC2(CC2)Oc2nc(OCCN3CCCCC3)c(C)cc2S1(=O)=O (single isomer, unassigned) [Example 374, (*S)-3-(3-(Difluoromethyl)-8-methyl-[1,2,4]triazolo[4,3-a]pyridine-7-yl)-2,2-dimethyl-3-(4-methyl-3-((8′-methyl-1′,1′-dioxido-7′-(2-(piperidin-1-yl)ethoxy)spiro[cyclopropane-1,4′-pyrido[2,3-b][1,4,5]oxathiazepin]-2′(3′H)-yl)methyl)phenyl)propanoic Acid] | 4.8 nM
